Source: patent publication US20030232040A1, “Biocidal methods and compositions” (SureCide Technologies, LLC, priority 2000, published 2003)
Entries after “also recorded” stand apart in the source; their conditions may differ.

Tested on: Escherichia coli (ATCC strain #25404)
Experiment: High-throughput 96-well liquid outgrowth system for the measurement of bacterial cell killing
Format: cell-based
Settings: for antimicrobial effectiveness: 1 mM FeCl2 10 min; for log kill / antimicrobial effect of the stress inducer after iron pre-incubation: 10 min 1 mM FeCl2 in iso-osmotic saline (130 mM NaCl, pH 5.0), then 10 min a range of concentrations of the stress inducer; for kill by the stress inducer alone: no FeCl2 pre-treatment, 10 min a range of concentrations of the stress inducer, iso-osmotic saline
From the text: Classical methods for determining antimicrobial effects involve exposure of cells to disinfectant or antiseptic agents contained in tubes or vials, removal of the agents by centrifugation, washing of the cells to remove disinfectant residues, plating of the cells at a number of dilutions onto culture plates, and enumeration of the resulting colonies. Such methods are inadequate for the purposes of the present invention for two principle reasons, namely, treatment of cells in tubes is too lengthy for the determination of rapid effects (e.g., on the order of 1-5 minutes), and treatment and plating are too laborious for the accurate determination of many different interactions in parallel. […] In these experiments, the assays were prepared as follows, and quadruplicate wells were treated in parallel. A high-throughput 96-well liquid outgrowth system was devised for the measurement of bacterial cell killing. Known numbers of living cells were treated, and unknown numbers of surviving cells were quantified by measuring the rate of liquid outgrowth of the culture relative to a standard curve, as determined by optical density. Cells of Escherichia coli (ATCC strain #25404) were grown to mid-log cell density (absorbance of about 0.1 at 600 nm) in 100 mL of Luria Broth (LB) at 37° C. in Erlenmeyer flasks, and then chilled at 0° C. on ice prior to use. “Treatment” plates were prepared as follows. Chilled cells were aliquoted (approximately 50 μL) into wells of a 96-well filtration plate (Multiscreen® (Millipore Corporation, Bedford, Mass.), having a 0.22 μm hydrophilic Durapore® membrane at the bottom of the wells). The LB medium was removed by vacuum filtration, and the remaining cells were washed with 150 μL of an iso-osmotic solution, either sterile saline solution (SSS, 130 mM NaCl, pH 5.0) or sterile HEPES-buffered saline (HBS, 0.595% HEPES, 0.82% NaCl, pH 7.05). The cells on the treatment plate were then exposed to various free iron (for example, FeCl2) and optional stress inducer treatments as described in the examples delineated below. The FeCl2 solutions were always prepared fresh on the day of use from the anhydrous salt. The cells in a set number of wells were not treated; these untreated cells were serially diluted and used to construct a standard curve. “Reading” plates were made from the treatment plate by adding approximately 130 μL of sterile LB medium to each well of three sterile polycarbonate microtiter plates (Corning). […] of the resuspended cells from all wells of the treatment plate were then transferred to a corresponding well on the reading plates, which were then sealed (for example, using polypropylene sealing mats) and incubated at 37° C. with vigorous shaking. Absorbance readings of turbidity (measured at λ=600 nm) were recorded at approximately 45minute intervals over a time course ranging from about two to about seven hours. Cell densities of the wells containing the treated cells were calculated by comparison to the standard curve. Absorbance readings were performed at 600 nm using a standard microtiter plate absorbance reader (Multiskan® microplate reader by Labsystems, Helsinki, FI). The measurements collected for the treated cells were disregarded unless they fell within a region of linear growth in liquid culture, which was individually determined for each time point reading. Generally, acceptable measurements ranged from about 0.020 to about 0.200 OD units. […] Techniques for calculating slopes and determining concentrations from standard curves are known to one skilled in the art, FeCl2 solutions were prepared from the anhydrous salt, and peroxide (H2O2) dilutions are prepared fresh from a 30% w/w stock solution. Cells were plated as described above, then treated with FeCl2 at concentrations ranging from about 1 μM to about 1.024 mM (in HBS). Cells were exposed to the FeCl2 solution for approximately 10 minutes at room temperature (i.e., iron “pre-treatment”).

| Molecule | log kill / antimicrobial effect of the stress inducer after iron pre-incubation | kill by the stress inducer alone | other results |
| --- | --- | --- | --- |
| [Cl][Fe][Cl] [FeCl2] |  |  | antimicrobial effectiveness (then NaCl near the iso-osmotic point (130 mM) (FIG. 4)): minimally effective; antimicrobial effectiveness (then hypo-osmotic (0 mM NaCl) or hyper-osmotic (600 mM) conditions (FIG. 4)): maximally effective; cell killing (10 min 1 mM FeCl2 in iso-osmotic saline, then 10 min in a range of osmolarities of sodium chloride (FIG. 4)): resulted in killing at all osmolarities; FeCl2 pre-treatment concentration that increases the sensitivity of cells to subsequent H2O2 (10 min FeCl2 in HBS, then 10 min H2O2 about 73 μM to about 1 mM (FIG. 2B)): ≥ 16 µM; cell killing (decrease in cell viability) (FeCl2 alone, about 1 μM to about 1.024 mM in iso-osmotic HBS, 10 min room temperature, no hydrogen peroxide (FIG. 2A)): did not result in appreciable cell killing at any concentration; also recorded: relatively small antimicrobial effect; reduction of microbial population (FeCl2 pre-treatment 10 min in HBS, then H2O2 10 min at concentrations as low as 73 μM (FIG. 2A)): reduced the microbial populations significantly |
| O=P([O-])([O-])[O-].[Na+].[Na+].[Na+] [TSP, trisodium phosphate] | enhanced by pre-incubation of the cells with free iron |  |  |
| O=C(O)CC(O)(CC(=O)O)C(=O)O [citric acid] | potentiated by pre-incubation with iron |  |  |
| OCl [hypochlorite] | highly effective | none of the concentrations of bleach used resulted in any kill alone |  |
| lysozyme | highly effective | none of the concentrations of lysozyme used resulted in any kill alone |  |
